Read-outs that look alike come from different tables or passages of the source.
Assays:
[1] = biological target: WT EZH2 (EZH2 4 protein complex: EZH2, EED, SUZ12, RbAp48) (Homo sapiens, UniProt O75530+Q09028+Q15022+Q15910); test: WT EZH2 nucleosome assay; format: biochemical
Outline: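 IC50 values come from 4-parameter fits of 11-point dose responses, with % effect also given at 20 μM. Reactions held HeLa oligonucleosomes (25 μg/mL), rH1 (50 nM), 1.5 μM tritiated SAM and 5 nM enzyme complex at pH 8.5 Tris/DTT/Tween; stopped by TCA after 60 min, filtered and scintillation-counted.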

EZH2PRC2 mutant Y641N = EZH2PRC2 mutant Y641N (Homo sapiens, UniProt Q15910, Y641N); test: EZH2PRC2 mutant Y641N nucleosome assay; format: biochemical; details: read-out: EZH2PCR2 Mutant Y641N IC50
Experimental: Nucleosome Assay Protocol:
A. Compound preparation • 1. Prepare 10 mM stock solutions in 100% DMSO from solid material • 2. Serial dilute 10 mM compound stocks either 2 or 3-fold in 100% DMSO to generate compounds for 11 point dose response
B. Reagent preparation • 1. Prepare 1× assay buffer containing 100 mM Tris pH 8.5, 4 mM DTT and 0.01% Tween-20 • 2. Dilute purified HeLA oligonucleosomes and recombinant histone H1 (New England Biolabs) in assay buffer to 1.67×. • 3. Dilute EZH2 4 protein complex (EZH2, EED, SUZ12, RbAp48) to 3.5× in assay buffer • 4. Prepare 10×^3H SAM solution in assay buffer using 0.94 μCi/well of radioactive SAM (Perkin Elmer) and sufficient non-labeled SAM (Sigma) for 1.5 μM final concentration. • 5. Dilute TCA to 20% in DI water
C. Enzyme reaction • 1. Final reaction conditions are 5 nM EZH2 4-protein complex, 1.5 μM SAM, 25 μg/mL oligonucleosomes, 50 nM rH1 in a 50 μl reaction volume. • 2. Add 1 μl of diluted compound to the assay plate (96-well V-bottom polypropylene plates) or 1 μl of DMSO for control wells. • 3. Add 30 μl of nucleosomes to the assay plate • 4. Add 14 μl of EZH2 4 protein complex to the assay plate • 5. Add 5 μl of ^3H SAM to start the reaction. • 6. Stop the reaction after 60 minutes with the addition of 100 μl of 20% TCA • 7. Transfer 150 μl of quenched reaction into a prepared filterplate (Millipore #MSIPN4B10) • 8. Apply vacuum to the filterplate to filter the reaction mix through the membrane. • 9. Wash the filterplate with 8×200 μl of PBS, blot dry and dry in an oven for 30 minutes • 10. Add 50 μl of microscint-20 scintillation fluid (Perkin Elmer) to each well, wait 30 minutes and count on a liquid scintillation counter.
D. Data analysis • 1. IC50 values were determined by fitting the data to a 4-parameter IC50 equation using proprietary curve fitting software.
Wild type (WT) EZH2% Effect at 20 μM and IC50 values (μM) generated in WT EZH2 or EZH2PRC2 mutant Y641N nucleosome assays are provided in Table 3 below. A blank entry in the table indicates the data was not generated in that assay.

[2] = nucleosome assay, 5 nM EZH2 4-protein complex, 1.5 μM SAM, read-out: WT EZH2 IC50

WT EZH2 (EZH2 4 protein complex: EZH2, EED, SUZ12, RbAp48), sequence (Q15910 whole entry): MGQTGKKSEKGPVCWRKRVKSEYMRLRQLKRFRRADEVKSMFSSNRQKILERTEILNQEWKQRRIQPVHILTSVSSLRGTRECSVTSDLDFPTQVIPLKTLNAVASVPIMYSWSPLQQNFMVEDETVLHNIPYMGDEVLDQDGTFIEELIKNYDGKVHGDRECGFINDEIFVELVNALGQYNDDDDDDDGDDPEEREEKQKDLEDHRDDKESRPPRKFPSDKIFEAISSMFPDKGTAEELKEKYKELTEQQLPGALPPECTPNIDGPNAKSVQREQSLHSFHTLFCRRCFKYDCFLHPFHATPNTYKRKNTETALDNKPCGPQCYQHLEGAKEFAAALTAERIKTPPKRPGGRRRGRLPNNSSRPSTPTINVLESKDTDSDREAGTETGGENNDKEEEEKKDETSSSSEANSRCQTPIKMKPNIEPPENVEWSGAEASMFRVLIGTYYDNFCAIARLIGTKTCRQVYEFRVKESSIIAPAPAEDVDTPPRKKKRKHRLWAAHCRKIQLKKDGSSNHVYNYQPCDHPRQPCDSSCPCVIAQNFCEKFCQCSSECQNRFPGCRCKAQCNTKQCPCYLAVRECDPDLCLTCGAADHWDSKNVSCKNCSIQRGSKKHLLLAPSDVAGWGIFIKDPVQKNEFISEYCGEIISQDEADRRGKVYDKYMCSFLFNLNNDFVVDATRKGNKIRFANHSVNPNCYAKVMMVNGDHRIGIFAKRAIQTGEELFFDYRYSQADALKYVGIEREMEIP
WT EZH2 (EZH2 4 protein complex: EZH2, EED, SUZ12, RbAp48), sequence (O75530 whole entry partner): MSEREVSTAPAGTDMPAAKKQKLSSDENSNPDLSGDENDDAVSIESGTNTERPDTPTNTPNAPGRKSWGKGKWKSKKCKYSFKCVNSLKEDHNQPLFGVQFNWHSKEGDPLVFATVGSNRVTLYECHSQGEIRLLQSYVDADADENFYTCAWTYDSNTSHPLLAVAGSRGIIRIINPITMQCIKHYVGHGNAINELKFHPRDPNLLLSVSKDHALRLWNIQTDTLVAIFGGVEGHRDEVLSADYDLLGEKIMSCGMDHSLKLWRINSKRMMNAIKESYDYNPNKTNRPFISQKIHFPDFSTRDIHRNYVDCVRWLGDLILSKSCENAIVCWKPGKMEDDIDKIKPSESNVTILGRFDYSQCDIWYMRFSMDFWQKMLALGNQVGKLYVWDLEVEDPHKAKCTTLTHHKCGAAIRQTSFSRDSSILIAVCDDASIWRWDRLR
WT EZH2 (EZH2 4 protein complex: EZH2, EED, SUZ12, RbAp48), sequence (Q15022 whole entry partner): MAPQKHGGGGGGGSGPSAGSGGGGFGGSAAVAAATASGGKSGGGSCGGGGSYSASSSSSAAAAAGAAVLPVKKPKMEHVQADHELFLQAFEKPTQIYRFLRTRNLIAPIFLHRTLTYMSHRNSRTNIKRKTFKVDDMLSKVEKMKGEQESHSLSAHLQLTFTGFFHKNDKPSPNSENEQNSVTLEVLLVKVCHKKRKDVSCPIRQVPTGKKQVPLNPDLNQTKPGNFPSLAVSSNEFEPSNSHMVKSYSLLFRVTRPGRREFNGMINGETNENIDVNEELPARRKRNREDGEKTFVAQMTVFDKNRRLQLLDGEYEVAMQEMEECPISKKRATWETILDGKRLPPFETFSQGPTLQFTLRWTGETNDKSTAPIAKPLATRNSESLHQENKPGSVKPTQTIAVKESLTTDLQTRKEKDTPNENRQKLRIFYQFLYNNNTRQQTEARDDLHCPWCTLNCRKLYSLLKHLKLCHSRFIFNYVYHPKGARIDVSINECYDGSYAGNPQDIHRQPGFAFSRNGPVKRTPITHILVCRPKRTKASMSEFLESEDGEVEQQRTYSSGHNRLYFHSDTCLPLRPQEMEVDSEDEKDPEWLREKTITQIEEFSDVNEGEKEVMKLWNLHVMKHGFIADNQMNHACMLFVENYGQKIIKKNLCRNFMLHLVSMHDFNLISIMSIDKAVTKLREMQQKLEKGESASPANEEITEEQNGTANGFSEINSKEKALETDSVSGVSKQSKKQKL
WT EZH2 (EZH2 4 protein complex: EZH2, EED, SUZ12, RbAp48), sequence (Q09028 whole entry partner): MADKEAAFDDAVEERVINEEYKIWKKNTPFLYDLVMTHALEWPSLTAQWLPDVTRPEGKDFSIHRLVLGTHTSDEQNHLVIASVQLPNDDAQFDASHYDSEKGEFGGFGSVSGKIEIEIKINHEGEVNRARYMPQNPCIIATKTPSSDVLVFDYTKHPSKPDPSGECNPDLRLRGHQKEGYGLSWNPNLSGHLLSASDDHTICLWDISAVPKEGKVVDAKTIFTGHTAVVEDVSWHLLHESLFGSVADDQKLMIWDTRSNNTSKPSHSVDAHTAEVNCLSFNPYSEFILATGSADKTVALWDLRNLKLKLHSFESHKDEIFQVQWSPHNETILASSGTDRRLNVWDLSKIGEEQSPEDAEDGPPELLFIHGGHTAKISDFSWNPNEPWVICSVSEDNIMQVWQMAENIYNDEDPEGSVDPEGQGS
EZH2PRC2 mutant Y641N, sequence (Q15910 whole entry Y641N): as the sequence (Q15910 whole entry) above, with Y641N counted along it
EZH2PRC2 mutant Y641N, sequence (O75530 whole entry partner): as the sequence (O75530 whole entry partner) above
EZH2PRC2 mutant Y641N, sequence (Q15022 whole entry partner): as the sequence (Q15022 whole entry partner) above
EZH2PRC2 mutant Y641N, sequence (Q09028 whole entry partner): as the sequence (Q09028 whole entry partner) above

CNc1ncc(-c2cc(C(=O)NCc3c(C)cc(C)[nH]c3=O)c(C)c(-c3c(C)cnn3C)c2)cn1 [Example 15, N-[(4,6-dimethyl-2-oxo-1,2-dihydropyridin-3-yl)methyl]-3-(1,4-dimethyl-1H-pyrazol-5-yl)-2-methyl-5-[2-(methylamino)pyrimidin-5-yl]benzamide]
IC50 [1]: 35 nM
IC50 (EZH2PRC2 mutant Y641N): 300 nM

Cc1cc(C)c(CNC(=O)c2ncnc(N3[C@@H](C)COC[C@@H]3C)c2C)c(=O)[nH]1 [Example 89, 6-[(3S,5S)-3,5-dimethylmorph-olin-4-yl]-N-[(4,6-dimethyl-2-oxo-1,2-dihydropyridin-3-yl)methyl]-5-methylpyrimi-dine-4-carboxamide]
IC50 [1, 2]: 11000 nM
IC50 (EZH2PRC2 mutant Y641N): 82400 nM

Cc1cc(C)c(CNC(=O)c2nc(Cl)nc(N3CCC[C@@H]3C)c2C)c(=O)[nH]1 [Example 41, 2-chloro-N-[(4,6-dimethyl-2-oxo-1,2-dihydropyridin-3-yl)methyl]-5-methyl-6-[(2S)-2-methylpyrrolidin-1-yl]pyrimidine-4-carboxamide]
IC50 [1, 2]: 1100 nM
IC50 (EZH2PRC2 mutant Y641N): 7810 nM

Cc1cc(C)c(CNC(=O)c2cccc(-c3ccnn3C)c2C)c(=O)[nH]1 [Example 2, N-[(4,6-dimethyl-2-oxo-1,2-dihydropyridin-3-yl)methyl]-2-methyl-3-(1-methyl-1H-pyrazol-5-yl)benzamide]
IC50 [1, 2]: 340 nM
IC50 (EZH2PRC2 mutant Y641N): 5530 nM

Cc1cc(C)c(CNC(=O)c2ccnc(N3CCC[C@H]3C)c2Cl)c(=O)[nH]1 [Example 106, 3-chloro-N-[(4,6-dimethyl-2-oxo-1,2-dihydropyridin-3-yl)methyl]-2-[(2R)-2-methylpyrrolidin-1-yl]isonicotin-amide]
IC50 [1, 2]: 19800 nM
IC50 (EZH2PRC2 mutant Y641N): 86000 nM

Cc1cc(C)c(CNC(=O)c2cc(-c3cnc(N4CC(F)C4)nc3)cc(-c3c(C)cnn3C)c2C)c(=O)[nH]1 [Example 24, N-[(4,6-dimethyl-2-oxo-1,2-dihydropyridin-3-yl)methyl]-3-(1,4-dimethyl-1H-pyrazol-5-yl)-5-[2-(3-fluoroazetidin-1-yl)pyrimidin-5-yl]-2-methylbenzamide]
IC50 [1, 2]: 22 nM
IC50 (EZH2PRC2 mutant Y641N): 550 nM

CCCc1cc(C)[nH]c(=O)c1CNC(=O)c1cc(-c2cnn(C)c2)cc(OC(C)C)c1Cl [Example 27, 2-chloro-3-isopropoxy-N-[(6-methyl-2-oxo-4-propyl-1,2-dihydropyridin-3-yl)methyl]-5-(1-methyl-1H-pyrazol-4-yl)benzamide]
IC50 [1, 2]: 290 nM
IC50 (EZH2PRC2 mutant Y641N): 5150 nM

CCn1ncc(C)c1-c1cccc(C(=O)NCc2c(C)c(Br)c(C)[nH]c2=O)c1C [Example 147, N-[(5-bromo-4,6-dimethyl-2-oxo-1,2-dihydropyridin-3-yl)methyl]-3-(1-ethyl-4-methyl-1H-pyrazol-5-yl)-2-methylbenzamide]
IC50 [1, 2]: 178000 nM
IC50 (EZH2PRC2 mutant Y641N): > 200000 nM

Cc1cc(C)c(CNC(=O)c2ncnc(N3CCN(c4ncccn4)C[C@@H]3C)c2C)c(=O)[nH]1 [Example 31, (S)—N-((4,6-dimethyl-2-oxo-1,2-dihydropyridin-3-yl)methyl)-5-methyl-6-(2-methyl-4-(pyrimidin-2-yl)piperazin-1-yl)pyrimidine-4-carboxamide]
IC50 [1, 2]: 140 nM
IC50 (EZH2PRC2 mutant Y641N): 1310 nM

Cc1cc(C)c(CNC(=O)c2cc(-c3ccc(N4CCN(C)CC4)nc3)cc(-c3ccnn3C)c2C)c(=O)[nH]1 [Example 149, N-[(4,6-dimethyl-2-oxo-1,2-dihydropyridin-3-yl)methyl]-2-methyl-5-[6-(4-methylpiperazin-1-yl)pyridin-3-yl]-3-(1-methyl-1H-pyrazol-5-yl)benzamide]
IC50 [1, 2]: 34.2 nM
IC50 (EZH2PRC2 mutant Y641N): 198 nM

Cc1cc(C)c(CNC(=O)c2nc(Cl)nc(N3CCOC[C@@H]3C)c2C)c(=O)[nH]1 [Example 37, 2-chloro-N-[(4,6-dimethyl-2-oxo-1,2-dihydropyridin-3-yl)methyl]-5-methyl-6-[(3S)-3-methyl-morpholin-4-yl]pyrimidine-4-carboxamide]
IC50 [1, 2]: 1190 nM
IC50 (EZH2PRC2 mutant Y641N): 6250 nM

Cc1cc(C)c(CNC(=O)c2cc(-c3ccc4c(c3)CS(=O)(=O)C4)cc(-c3ccnn3C)c2C)c(=O)[nH]1 [Example 35, N-[(4,6-dimethyl-2-oxo-1,2-dihydropyridin-3-yl)methyl]-5-(2,2-dioxido-1,3-dihydro-2-benzothien-5-yl)-2-methyl-3-(1-methyl-1H-pyrazol-5-yl)benzamide]
IC50 [1, 2]: 42 nM
IC50 (EZH2PRC2 mutant Y641N): 350 nM

Cc1cc(C)c(CNC(=O)c2nc(Cl)nc(N3CCN(C)C[C@@H]3C)c2C)c(=O)[nH]1 [Example 36, 2-chloro-N-[(4,6-dimethyl-2-oxo-1,2-dihydropyridin-3-yl)methyl]-6-[(2S)-2,4-dimethylpiperazin-1-yl]-5-methylpyrimidine-4-carboxamide]
IC50 [1, 2]: 2080 nM
IC50 (EZH2PRC2 mutant Y641N): 13000 nM

COc1cccc(C(=O)NCc2c(C)cc(C)[nH]c2=O)c1C [Example 60, N-[(4,6-dimethyl-2-oxo-1,2-dihydropyridin-3-yl)methyl]-3-methoxy-2-methylbenz-amide]
IC50 [1, 2]: 3980 nM
IC50 (EZH2PRC2 mutant Y641N): 50400 nM

CCOc1cccc(C(=O)NCc2c(C)cc(C)[nH]c2=O)c1C [Example 48, N-[(4,6-dimethyl-2-oxo-1,2-dihydropyridin-3-yl)methyl]-3-ethoxy-2-methyl-benzamide]
IC50 [1, 2]: 1810 nM
IC50 (EZH2PRC2 mutant Y641N): 19800 nM

Cc1cc(C)c(CNC(=O)c2cc(-c3ccc(CN4CCOCC4)cc3)cc(-c3ccnn3C)c2C)c(=O)[nH]1 [Example 150, N-[(4,6-dimethyl-2-oxo-1,2-dihydropyridin-3-yl)methyl]-4-methyl-5-(1-methyl-1H-pyrazol-5-yl)-4′-(morpholin-4-ylmethyl)bi-phenyl-3-carboxamide]
IC50 [1, 2]: 113 nM
IC50 (EZH2PRC2 mutant Y641N): 679 nM

COCc1cc(C)[nH]c(=O)c1CNC(=O)c1cc(Cl)cc(-c2ccnn2C)c1C [Example 50, 5-chloro-N-{[4-(methoxymeth-yl)-6-methyl-2-oxo-1,2-dihydropyridin-3-yl]methyl}-2-methyl-3-(1-methyl-1H-pyrazol-5-yl)benzamide]
IC50 [1, 2]: 2050 nM
IC50 (EZH2PRC2 mutant Y641N): 26700 nM

Cc1cc(C)c(CNC(=O)c2cc(-c3cnc(N(C)C)nc3)cc(-c3ccnn3C)c2C)c(=O)[nH]1 [Example 13, 5-[2-(dimethylamino)pyrimidin-5-yl]-N-[(4,6-dimethyl-2-oxo-1,2-dihydropyridin-3-yl)methyl]-2-methyl-3-(1-methyl-1H-pyrazol-5-yl)benzamide]
IC50 [1, 2]: 38 nM
IC50 (EZH2PRC2 mutant Y641N): 620 nM

Cc1cc(C)c(CNC(=O)c2cc(-c3cnc(N)nc3)cc(-c3ccnn3C)c2C)c(=O)[nH]1 [Example 16, 5-(2-aminopyrimidin-5-yl)-N-[(4,6-dimethyl-2-oxo-1,2-dihydropyridin-3-yl)methyl]-2-methyl-3-(1-methyl-1H-pyrazol-5-yl)benzamide]
IC50 [1, 2]: 84 nM
IC50 (EZH2PRC2 mutant Y641N): 1330 nM

Cc1cc(C)c(CNC(=O)c2ncnc(N3CCN(C)C[C@@H]3C)c2C)c(=O)[nH]1 [Example 67, N-[(4,6-dimethyl-2-oxo-1,2-dihydropyridin-3-yl)methyl]-6-[(2S)-2,4-dimethylpipera-zin-1-yl]-5-methylpyrimi-dine-4-carboxamide]
IC50 [1, 2]: 4930 nM
IC50 (EZH2PRC2 mutant Y641N): 23500 nM

CNc1ncc(-c2cc(C(=O)NCc3c(C)cc(C)[nH]c3=O)c(C)c(-c3ccnn3C)c2)cn1 [Example 14, N-[(4,6-dimethyl-2-oxo-1,2-dihydropyridin-3-yl)methyl]-2-methyl-5-[2-(methylamino)pyrimidin-5-yl]-3-(1-methyl-1H-pyrazol-5-yl)benzamide]
IC50 [1, 2]: 27 nM
IC50 (EZH2PRC2 mutant Y641N): 640 nM

Cc1cc(C)c(CNC(=O)c2nc(N3CCCC3)nc(N3CCC[C@@H]3C)c2C)c(=O)[nH]1 [Example 88, N-[(4,6-dimethyl-2-oxo-1,2-dihydropyridin-3-yl)methyl]-5-methyl-6-[(2S)-2-methylpyrroli-din-1-yl]-2-pyrrolidin-1-ylpyrimidine-4-carboxamide]
IC50 [1, 2]: 9820 nM
IC50 (EZH2PRC2 mutant Y641N): 34800 nM

Source: patent publication US20170152239A1, “BENZAMIDE AND HETEROBENZAMIDE COMPOUNDS” (PFIZER INC., priority 2012, published 2017)
